# Test results: patent EP2777394A1, “Agricultural adjuvant composition and process for its obtainment” (SC Teso Spec SRL, priority 2012, dated 2014)
# Experiments:
# Format in all cases: in vivo
# [1] = test system: leafminers flies, Liriomyza trifolii (Burgess); experiment: Field test of spinosad with or without adjuvant A3 against leafminer larvae on muskmelon; conditions: per sampled leaf, 3 days after treatment, acetamipirid 0.025%, spinosad 0.05%, adjuvant A3 0.4%
# Procedure: Example 10. The effect of adjuvant A3, obtained according to Example 5, was tested to determine whether its addition improve the activity of spinosad against leafminers flies, Liriomyza trifolii (Burgess). Spinosad is a metabolite produced by biosynthetic process by the actinomycetes Saccharopolyspora spinosa, and provides excellent crop protection with a relatively low toxicity to non-target organisms, including many beneficial insects. For that reason spinosad is accepted on organic farming systems. […] Addition of the spraying adjuvant increase the efficacy of spinosad based insecticide in controlling leafminers larvae (Larson, 1997, Arthrop. Manag. Test. 22:415-416).
# The experiment was done on the Fundulea experimental field, which characteristics were already presented in Example 6. The muskmelon (Cucumis melo L., cv. Charentais) experimental plots were established on 19th of April, 2012, using 25 days old transplants, on a density equivalent to 12.000 transplants per ha. The experimental filed where experiment was plotted was previously cultivated with corn and was fertilized with 200 kg/ha equivalent complex fertilizer NPK 15:15:15 (Azomure ? ), on beginning of March. Herbicidation was done by application on the whole surface of a dose of 4 l/ha Stomp 330 EC, sprayed in a mixture with 450 l water per ha, 10 days before transplantation, and incorporated in soil with a by harrowing with a disc harrow.
# Plots of 20 m^2 were made with edges of two untreated rows, in random blocks, with 4 repetitions on each treatment. Application of treatments were done with a backpack sprayer SG10 (Stihl AG, Waiblingen, Germany), by spraying from 40 cm, with a spraying pressure set-up to 275 kPa, using a nozzle with flat jet and low drift (TeeJett® flat-fan TT11002 model, Spraying Systems Co., Wheaton, IL, USA). Were applied […], one in the phenophase of 3...4 leaves and in the phenophase 6...8 leaves, as a second treatment. In phenophase 3...4 leaves, one day after the treatment with insecticide, was applied also a treatment with Previcur 607 SL (propamocarb 607 g/l) for controlling the downy mildew (Pseudoperonospora cubensis), on the whole area of the experiment. The experimental treatments were: • V1 - control, untreated for Liriomyza trifolii; • V2 - acetamipirid 0.025% (Mospilan 20 SG, 200 g/kg acetamipirid, Nippon Soda Company, Tokio, Japonia), equivalent 0.1 kg/ha in a spraying norm of 400 l/ha, considered as standard for treatment of leafminers flies larvae because is a systemic insecticide; • V3 - spinosad 0.05% (Laser 240 SC, 240 g/l spinosad, Dow AgroSciences, Indianapolis, USA), equivalent 0.2 kg/ha at a spraying norm of 400 l/ha; • V4 - spinosad 0.05% (Laser 240 SC, 240 g/l spinosad, Dow AgroSciences, Indianapolis, USA), equivalent 0.2 kg/ha at a spraying norm of 400 l/ha + adjuvant A3, according to Example 5, 0.4%, equiv. to 1.6 kg at a spraying norm of 400 l/ha.
# The impact of each treatment on leafminer larvae mortality was estimated by counting the number of live and dead / paralyzed larvae, and also of the empty and total mines per each sampled leaf. A total of 10 leaves per experimental plot were collected at 3 days after treatment and examined in the laboratory for presence of mines in leaves and larvae status in the mines. The data were processed by analysis of variance (Statistica 10, StatSoft). Tab. 11.The influence of spray adjuvant A3 on the efficacy of spinosad in controlling the leafminers larvae on muskmelon.
# [2] = test system: winter wheat (Triticum aestivum L.), cultivar Capo; experiment: Selenium biofortification of wheat grains by foliar sodium selenite, with or without adjuvant A1.2 (field experiment); conditions: 300 l/ha; for Selenium content in the wheat grains (mcg/kg): applied at GS31; for Yield (kg/ha): yield with 86% dry matter
# Text: Example 7. On the experimental field from Fundulea was done also an experiment in order to establish the effect of adjuvant A1.2 on the biofortification treatment with sodium selenite applied as foliar fertilizers on wheat. Se (IV) from the sodium selenite is a selenium species which are not translocated from the radicular system into the foliar one through xylem (Zhu et al., 2009, Trends Plant Sci. 14:436-442), thus an eventually biofortification of the wheat yield resulted from the treatment with selenite is the result of the selenite absorbed through cuticle and not of that absorbed by radicular system after leakage on soil. The soil on which was done the experiment has the characteristics presented in the above tab. 6, and the total selenium content (HF + HNO3 + HCl) is 0.197 mg/kg.
# The experiment was done of experimental plots of 25 m^2, with winter wheat (Triticum aestivum L.), cultivar Capo, cultivated in similar conditions with those already presented in Example 6 regarding the agrotechnics, base fertilization before seeding and crop protection. The experiment was done in random blocks in a Latin square, 4 treatments in 4 repetitions. The 4 treatments were: • V1 - control, treated with water, • V2 - sprayed with a solution of sodium selenite pentahidrate, Na2SeO3.5 H2O, 0.0111%, equiv. 10 g Se/ha for a spraying norm of 300 l/ha; • V3 - sprayed with a solution of sodium selenite pentahidrate, Na2SeO3.5 H2O, 0.0222%, equiv. 20 g Se/ha for a spraying norm of 300 l/ha; • V4 - sprayed with a solution of sodium selenite pentahidrate, Na2SeO3.5 H2O, 0.0111 %, equiv. 10 g Se/ha for a spraying norm of 300 l/ha and 0.5% spraying adjuvant A1.2 Ex.2, equivalent to a dose of 1.5 kg/ha.
# Application of the solutions was done with a backpack sprayer SG10 (Stihl AG, Waiblingen, Germany), by spraying from 40 cm, with a spraying pressure set-up to 275 kPa, using a nozzle with flat jet and low drift (TeeJett® flat-fan TT11002 model, Spraying Systems Co., Wheaton, IL, USA). The treatments were applied during the growth stages GS31 (5th April 2012). On the end of the vegetation season each repetition was separately harvested, the realized production being expressed in kg/ha with 86% dry matter. In the wheat grain selenium was determined, by atomic absorption spectrophotometry with hydride generation (Tinggi et al., 1992, J. Food Comp. Anal. 5, 269-280). The date were analyzed by application of the linear general model, to determine the average values and the significance differences at a probability level of 5% (Statistica 10, StatSoft, Tulsa, OK, US). Tab. 8. Influence of the adjuvant A1.2 done according to the invention on the biofortification treatment of wheat grains (cv. Capo) with selenium.
# [3] = test system: Tomato plants (Lycopersicum esculentum cv. Cristal F1); experiment: Protection of tomato plants against water stress by foliar glycine-betaine, with or without adjuvant A2 (greenhouse)
# Procedure: Example 9. It was tested the efficacy of adjuvant A2, obtained according to Ex.4 on the performances of glycine-betaine, compound with an osmoprotectant action, regarding the protection of tomato plants against water stress. Glycine - betaine presents a molecule with quaternary nitrogen, strongly polar, with a reduced penetrability on the hydrophobic plant cuticle.
# Tomato plants (Lycopersicum esculentum cv. Cristal F1), transplants of 60 days, were re-potted in vegetation pots of 25 cm dia. and 50 cm height, on which was introduced a synthetic grown substrate enriched with nutrients for the first week of plant growth (Canna Terra Professional Plus, Canna International BV). The vegetation pots were maintained in greenhouse conditions, at 22±2°C during the day and 17±2°C during the night, with a photoperiod of 12 hours, supplemented with light with an intensity of 160 µE/m^2/s, from a metal halide lamp, when the light intensity was below 500 µE/m^2/s. […] The grown substrate contained initial nutrient reserves, thus the plants were fertilized only one time, at 28 days after transplantation, by the application of 100 ml of nutritive solution 1 g/l of fertilizer 20 - 8 - 20 (N-P2O5-K2O, Eurofertil, TimacAgro Romania). The experiment was organized in a random bloc with 4 repetitions for each treatment, each repetition including 5 plants. It was used purified glycine-betaine (99%, Sigma Aldrich, St. Louis, Mo, US). The experimental treatments included also controls, sprayed only with water, water stress control and unstressed control. These experimental treatments were: • V1 - control unstressed, sprayed with water; 2 treatments x 2 ml per plant, equivalent 100 l/ha; • V2 - control water stressed, sprayed with water; 2 treatments x 2 ml per plant, equivalent 100 l/ha; • V3 - water stressed, sprayed with glycine-betaine; 2 treatments x 2 ml 5 mM per plant, equivalent 58,5 g in 100l/ha; […]; […]; • V5 - water stressed, sprayed with glycine -betaine and adjuvant, 2 treatments x 2 ml solution 5 mM betaine + 1% adjuvant A2 per plant, equivalent 58,5 g betaine and 1 kg adjuvant A2 in 100l/ha.
# Treatments were applied in the 2nd and 29th day after transplantation, by spraying each plant with the help of a glass atomizer with metal top and plastisol bulb (model 15-RD, DeVilbiss Healthcare, Somerset, PA, USA). The unstressed control was irrigated once every five day at 100% field capacity, and the water stressed plants were irrigated each two weeks at 100% field capacity. […] The data were processed by analysis of variance (Statistica 10, StatSoft).
# [4] = test system: large crabgrass (Digitaria sanguinalis); experiment: Greenhouse test of adjuvants on nicosulfuron efficacy, large crabgrass; conditions: nicosulfuron 50 g/ha, without adjuvant, Trend 90 0,1% or soybean oil methylate 1%
# Procedure: (§1) Example 8. The basic adjuvant A1.3 was tested on greenhouse conditions in order to verify its effect on the performance increase of nicosulfuron, herbicide representative for the category of weakly acid herbicides from the sulfonylurea class, which solubility in water is increased on high pH. The used test plants were common cocklebur (Xanthium strumarium), dicotyledonous weed, and large crabgrass (Digitaria sanguinalis), monocotyledonous weed. The common cocklebur was sown on approx. 2 cm deep, in plastic pots of 15 cm diameter, and after emergence was thinned to only 2 plants. The large crabgrass was planted in the same type of plastic pots, at 1 cm deep, and after emergence was thinned to a cluster of around 15 plants. The pots contain a synthetic grown substrate enriched with nutrients for the first week of plant growth ([…] Professional Plus, Canna International BV, Oosterhout, Netherlands), and consequently were not applied fertilizers. […] At three weeks after the treatment it was determined the fresh weight of plants on each repetition by weighting and was estimated the phytotoxicity, using a scale from 0% (without visible symptoms) to 100% (plant completely destroyed). […]
# [5] = test system: common cocklebur (Xanthium strumarium); experiment: Greenhouse test of adjuvants on nicosulfuron efficacy, common cocklebur; conditions: nicosulfuron 50 g/ha, without adjuvant, Trend 90 0,1% or soybean oil methylate 1%
# Procedure: as §1
# [6] = V3 water stressed, 2x 5 mM equiv. 58,5 g in 100 l/ha
# [7] = V3 water stressed, 2x 5 mM equiv. 58,5 g in 100 l/ha, 8 weeks after transplantation
# [8] = fresh weight three weeks after treatment
# [9] = three weeks after treatment, scale 0-100%
Molecule,Dead larvae ([1]; First treatment),Empty mines ([1]; First treatment),Mines total ([1]; First treatment),Mines with live larvae ([1]; First treatment),Dead larvae ([1]; Second treatment),Empty mines ([1]; Second treatment),Mines total ([1]; Second treatment),Mines with live larvae ([1]; Second treatment),other results
"C/C(=N\C#N)N(C)Cc1ccc(Cl)nc1 [Acetamipirid, acetamipirid]",0.1c,0c,0.4a,0.1c,0.3c,0b,0.2a,0b,–
"O=[Se](O)O [Na2SeO3.5 H2O, sodium selenite pentahidrate]",–,–,–,–,–,–,–,–,Selenium content in the wheat grains (mcg/kg) ([2]; equiv. 10 g Se/ha): 105b mcg/kg; Yield (kg/ha) ([2]; equiv. 10 g Se/ha): 4958a kg/ha; Selenium content in the wheat grains (mcg/kg) ([2]; equiv. 20 g Se/ha): 142a mcg/kg; Yield (kg/ha) ([2]; equiv. 20 g Se/ha): 4549b kg/ha
C[N+](C)(C)CC(=O)O [glycine-betaine],–,–,–,–,–,–,–,–,"Leaves surfaces (mm^2) [3, 6]: 587.58±4.92ab mm^2; Number of Leaves [3, 6]: 28.00±2.1b; Plant height (cm) [3, 7]: 47.30±3.42c cm; Root length (cm) [3, 7]: 45.50±2.39b cm; Average yield** (g ripened fruits / plant) ([3]; V3 water stressed, 2x 5 mM equiv. 58,5 g in 100 l/ha, production for 30 days cycle of flowering - fructification): 223±28.2b g ripened fruits / plant; Leaves surfaces (mm^2) ([3]; V4 water stressed, 2x 5 mM equiv. 117 g in 100 l/ha): 663.16±5.84a mm^2; Root length (cm) ([3]; V4 water stressed, 2x 5 mM equiv. 117 g in 100 l/ha, 8 weeks after transplantation): 54.80±1.88b cm"
COc1cc(OC)nc(NC(=O)NS(=O)(=O)c2ncccc2C(=O)N(C)C)n1 [nicosulfuron],–,–,–,–,–,–,–,–,"Mass reduction (% control) [4, 8]: 52c % control; Phytotoxicity (%) [4, 9]: 40c %; Mass reduction (% control) [5, 8]: 59c % control; Phytotoxicity (%) [5, 9]: 33c %"
spinosad,1.8b,3.3b,8.2b,1.2b,3.1a,2.7a,6.8b,0.3a,–
